Measured values published in patent US10597388B2, “Pyridazinone herbicides” (FMC CORPORATION, priority 2014, dated 2020).

Key:
Experiment in all cases: Test E greenhouse herbicide test, pre- and postemergence
Format in all cases: in vivo
[1] = test system: field bindweed (Convolvulus arvensis)
Method in brief: (§1)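 Visual rating vs untreated controls, 0 = no effect, 100 = complete control, after 14–21 d greenhouse. Pre: seeded silt loam treated with surfactant-containing solvent formulation. Post: 1–4-leaf plants (2–18 cm) in peat/vermiculite medium.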

[2] = test system: velvetleaf (Abutilon theophrasti); details: Preemergence
Method in brief: as §1

[3] = test system: beggarticks (hairy beggarticks, Bidens pilosa)
Method in brief: as §1

[4] = test system: nightshade (eastern black nightshade, Solanum ptycanthum); details: Preemergence
Method in brief: as §1

[5] = test system: pigweed, palmer (palmer pigweed, Amaranthus palmeri)
Method in brief: as §1

[6] = test system: johnsongrass (Sorghum halepense); details: Preemergence
Method in brief: as §1

kochia (Kochia scoparia) = test system: kochia (Kochia scoparia)
Method in brief: as §1

[7] = test system: crabgrass, large (large crabgrass, Digitaria sanguinalis); details: Preemergence
Method in brief: as §1

[8] = test system: waterhemp (common waterhemp, Amaranthus rudis)
Method in brief: as §1

[9] = test system: surinam grass (Brachiaria decumbens); details: Preemergence
Method in brief: as §1

[10] = test system: lambsquarters (Chenopodium album); details: Preemergence
Method in brief: as §1

[11] = test system: foxtail, giant (giant foxtail, Setaria faberii); details: Preemergence
Method in brief: as §1

[12] = 62 g ai/ha, Postemergence, scale 0 to 100 (0 no effect, 100 complete control)
[13] = 62 g ai/ha, Preemergence, scale 0 to 100 (0 no effect, 100 complete control)
[14] = 125 g ai/ha, Postemergence, scale 0 to 100 (0 no effect, 100 complete control)
[15] = 250 g ai/ha, Postemergence, scale 0 to 100 (0 no effect, 100 complete control)
[16] = Postemergence, 31 g ai/ha, visual, scale 0 no effect to 100 complete control
[17] = Preemergence, 31 g ai/ha, scale 0 to 100, 0 no effect, 100 complete control
[18] = Preemergence, 125 g ai/ha, visual, scale 0 no effect to 100 complete control
[19] = Preemergence, 250 g ai/ha, visual, scale 0 no effect to 100 complete control
[20] = 62 g ai/ha, scale 0 to 100 (0 no effect, 100 complete control)
[21] = 125 g ai/ha, scale 0 to 100 (0 no effect, 100 complete control)
[22] = 31 g ai/ha, scale 0 to 100, 0 no effect, 100 complete control
[23] = 250 g ai/ha, visual, scale 0 no effect to 100 complete control
[24] = 125 g ai/ha, Preemergence, scale 0 to 100 (0 no effect, 100 complete control)
[25] = 125 g ai/ha, visual, scale 0 no effect to 100 complete control

Cc1cc2ccccc2c(-c2c(O)c(C)nn(C)c2=O)c1C [Compound 34]
Plant response rating, Field Bindweed [1, 12]: 80 | Plant response rating, Field Bindweed [1, 13]: 50 | Plant response rating, Field Bindweed [1, 14]: 80 | Plant response rating, Field Bindweed [1, 15]: 95 | Plant response rating, Field Bindweed [1, 16]: 70 | Plant response rating, Field Bindweed [1, 17]: 5 | Plant response rating, Field Bindweed [1, 18]: 40 | Plant response rating, Field Bindweed [1, 19]: 60 | Plant response rating, Velvetleaf [2, 20]: 90 | Plant response rating, Velvetleaf [2, 21]: 100 | Plant response rating, Velvetleaf [2, 22]: 20 | Plant response rating, Velvetleaf [2, 23]: 100 | Plant response rating, Beggarticks [3, 12]: 100 | Plant response rating, Beggarticks [3, 13]: 100 | Plant response rating, Beggarticks [3, 14]: 98 | Plant response rating, Beggarticks [3, 15]: 100 | Plant response rating, Beggarticks [3, 16]: 90 | Plant response rating, Beggarticks [3, 17]: 90 | Plant response rating, Beggarticks [3, 18]: 100 | Plant response rating, Beggarticks [3, 19]: 100 | Plant response rating, Nightshade [4, 20]: 25 | Plant response rating, Nightshade [4, 21]: 98 | Plant response rating, Nightshade [4, 22]: 0 | Plant response rating, Nightshade [4, 23]: 95 | Plant response rating, Pigweed, Palmer [5, 12]: 80 | Plant response rating, Pigweed, Palmer [5, 13]: 0 | Plant response rating, Pigweed, Palmer [5, 14]: 65 | Plant response rating, Pigweed, Palmer [5, 24]: 90 | Plant response rating, Pigweed, Palmer [5, 15]: 75 | Plant response rating, Pigweed, Palmer [5, 16]: 50 | Plant response rating, Pigweed, Palmer [5, 17]: 0 | Plant response rating, Pigweed, Palmer [5, 19]: 90 | Plant response rating, Johnsongrass [6, 20]: 0 | Plant response rating, Johnsongrass [6, 22]: 0 | Plant response rating, Johnsongrass [6, 25]: 0 | Plant response rating, Johnsongrass [6, 23]: 0 | Plant response rating, Kochia (kochia (Kochia scoparia); [12]): 98 | Plant response rating, Kochia (kochia (Kochia scoparia); [13]): 5 | Plant response rating, Kochia (kochia (Kochia scoparia); [14]): 85 | Plant response rating, Kochia (kochia (Kochia scoparia); [15]): 85 | Plant response rating, Kochia (kochia (Kochia scoparia); [16]): 70 | Plant response rating, Kochia (kochia (Kochia scoparia); [17]): 0 | Plant response rating, Kochia (kochia (Kochia scoparia); [18]): 5 | Plant response rating, Kochia (kochia (Kochia scoparia); [19]): 85 | Plant response rating, Crabgrass, Large [7, 20]: 0 | Plant response rating, Crabgrass, Large [7, 22]: 0 | Plant response rating, Crabgrass, Large [7, 25]: 50 | Plant response rating, Crabgrass, Large [7, 23]: 20 | Plant response rating, Waterhemp [8, 12]: 85 | Plant response rating, Waterhemp [8, 13]: 100 | Plant response rating, Waterhemp [8, 14]: 85 | Plant response rating, Waterhemp [8, 24]: 100 | Plant response rating, Waterhemp [8, 15]: 90 | Plant response rating, Waterhemp [8, 16]: 70 | Plant response rating, Waterhemp [8, 17]: 100 | Plant response rating, Waterhemp [8, 19]: 100 | Plant response rating, Surinam Grass [9, 20]: 75 | Plant response rating, Surinam Grass [9, 21]: 95 | Plant response rating, Surinam Grass [9, 22]: 5 | Plant response rating, Surinam Grass [9, 23]: 80 | Plant response rating, Lambsquarters [10, 20]: 100 | Plant response rating, Lambsquarters [10, 22]: 10 | Plant response rating, Lambsquarters [10, 25]: 100 | Plant response rating, Lambsquarters [10, 23]: 98 | Plant response rating, Foxtail, Giant [11, 20]: 40 | Plant response rating, Foxtail, Giant [11, 22]: 5 | Plant response rating, Foxtail, Giant [11, 25]: 40 | Plant response rating, Foxtail, Giant [11, 23]: 65
